Experimental data reported in patent publication US7214715B2, “Compounds to treat Alzheimer's disease” (Pharmacia & Upjohn, priority 2000, dated 2007).

Row | Compound | melting point
1 | CCCN(CCC)C(=O)c1cc(C(=O)N[C@@H](Cc2ccccc2)[C@H](O)CNCc2cccc(OC)c2)cc(-c2ccc(OC)cc2)c1.Cl | 205 to 209 °C
2 | CCCN(CCC)C(=O)c1cc(C(=O)N[C@@H](Cc2cc(F)cc(F)c2)[C@H](O)CNCc2cccc(OC)c2)cc(-c2ccccc2)c1.Cl | 230 to 233 °C
3 | CCCN(CCC)C(=O)c1cc(C(=O)N[C@@H](Cc2ccccc2)[C@H](O)CNCc2cccc(OC)c2)cc(-c2ccccc2)c1.Cl | 214 to 219 °C
4 | CCCN(CCC)C(=O)c1cc(C(=O)N[C@@H](Cc2ccccc2)[C@H](O)CNCc2cccc(OC)c2)cc(-c2ccsc2)c1.Cl | 199 to 201 °C
